# Measured values taken from PubChem BioAssay AID743396 (Broad Institute, 2014).
# Active and inactive are the calls of the source.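 How the source made its calls: active means fitted curve reaches a 40% rise in fluorescent cells at or below the top valid dose; inactive means opposite-direction effect, or the rest.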
# System: not listed separately
# Assay: compound fluorescence in GFP channel, mTEFS cells – imaging, mTEFS fibroblasts, cherry-pick, artefact control for X-chromosome reactivation project, dose response (AID 743396);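 on % fluorescent cells increase: raw share of Hoechst-counted cells scored GFP positive without control normalization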
# Conditions: mTEFS fibroblasts autofluorescence, GFP-channel imaging, 3 days; at 19.5 µM (top of the series)
row,Compound,% fluorescent cells increase
1,Cc1ccc2[nH]c(=S)n(-c3cccnc3)c(=O)c2c1,0.016% (inactive)

# Same assay, conditions: mTEFS fibroblasts autofluorescence, GFP-channel imaging, 3 days; at 19.5 µM (top of the series); cells pretreated with 5-aza-dC
row,Compound,% fluorescent cells increase
1,C[C@@H]1CN(C)C(=O)Cc2cc(N(C)C)ccc2O[C@@H]1CN(C)S(C)(=O)=O,0.125% (inactive)
2,CC1=Nc2ccccc2/C1=C\c1sc(Nc2ccc(C)cc2)nc1O,0.199% (inactive)
3,CCOC(=O)c1ccc(NC(=O)C2CCC(CNc3c(N4CCOCC4)c(=O)c3=O)CC2)cc1 (configuration not stated),0.105% (inactive)
4,CC(=NNC(=S)Nc1cccc(Cl)c1)c1ccccn1,0% (inactive)
5,Cc1cc(NC(=O)c2ccccc2)n(-c2nc3ccccc3[nH]2)n1,0.023% (inactive)
6,Cc1ccc(OCCN2CCN(CC(O)Cn3c4ccccc4c4ccccc43)CC2)cc1 (configuration not stated),3.56% (inactive)
7,CCSc1nnc(NC(=O)c2cc(OC)c(OC)c(OC)c2)s1,0% (inactive)
8,Clc1ccc(-c2nc(-c3ccncc3)no2)c(Cl)c1,0% (inactive)
9,c1ccc(CCNc2nc(-c3ccccn3)nc3ccccc23)cc1,0% (inactive)
10,COc1ccc(NC(=O)C(C)N2C(=O)c3ccccc3C2=O)c(OC)c1 (configuration not stated),0.081% (inactive)
11,NNC(=O)c1sc(-c2ccccc2)cc1N,1.36% (inactive)
12,CC1CCCC(NC(=O)CSc2cccc[n+]2[O-])C1C (configuration not stated),0.029% (inactive)
13,C[C@@H]1CCCCO[C@@H](CN(C)C(=O)Nc2ccc(C(F)(F)F)cc2)[C@@H](C)CN([C@H](C)CO)C(=O)c2cc(NS(=O)(=O)c3ccc(F)cc3)ccc2O1,-0.166% (inactive)
14,CC(Sc1nnc(-c2ccncc2)n1C)C(=O)Nc1ccc(N2CCOCC2)cc1 (configuration not stated),0% (inactive)
15,COC(=O)c1sc(-c2ccc(C(C)(C)C)cc2)cc1NC(=O)c1ccccc1C(=O)O,0.032% (inactive)
16,COc1ccccc1C(=O)Nc1nnc(S(=O)(=O)N2CCCCCC2)s1,0.055% (inactive)
17,CC1Oc2ccccc2C=C1/C=N\NC(=O)c1cccnc1 (configuration not stated),0% (inactive)
18,CC(C)OC(=O)/C(=C\c1cccnc1)NC(=O)c1ccccc1,0.013% (inactive)
19,O=C(NCc1ccccc1)c1ccccc1Br,3.38% (inactive)
20,CCCCC(CCC(=O)Nc1ccn(-c2ccccc2)n1)C(=O)O (configuration not stated),-0.003% (inactive)
21,O=CNc1ccc2c(c1)Cc1cc([N+](=O)[O-])ccc1-2,0.119% (inactive)
22,COc1ccc(/C=C\c2onc(C)c2S(=O)(=O)N2CCC(C(=O)NCc3ccco3)CC2)cc1,0.029% (inactive)
23,O=C(c1ccccc1Cl)N1CCSCCS1(=O)=O,0% (inactive)
24,CC(C)CCN1CCN(Cc2cc3ccccc3[nH]2)CC1CCO (configuration not stated),0% (inactive)
25,CCOc1ccccc1N1C(=O)CC(Sc2nccc(C)n2)C1=O (configuration not stated),0% (inactive)
26,COc1ccccc1N1CCN(C(=O)CN2C(=O)c3cccc4cccc(c34)C2=O)CC1,0.023% (inactive)
27,NS(=O)(=O)c1cccc(-n2cnnn2)c1,0% (inactive)
28,COc1ccccc1N(C)c1cc2c(c3c1ccn3C)C1CCC2C1 (configuration not stated),0.033% (inactive)
29,COc1ccc(NC(=O)COc2ccc(C)c(C)c2)cc1S(=O)(=O)N1CCCCC1,0.026% (inactive)
30,O=C1c2cccc3c([N+](=O)[O-])ccc(c23)C(=O)N1Cc1cccnc1,11.8% (inactive)

# Same assay, conditions: mTEFS fibroblasts autofluorescence, GFP-channel imaging, 3 days; at 21 µM (top of the series); cells pretreated with 5-aza-dC
row,Compound,% fluorescent cells increase
1,COc1ccc(S(=O)(=O)N(C)C[C@@H]2OCc3cn(nn3)CCCC(=O)N([C@@H](C)CO)C[C@@H]2C)cc1,0.036% (inactive)

# System: mTEFS fibroblasts autofluorescence, GFP-channel imaging, 3 days
# Assay: as above
# Conditions: not given
row,Compound,AC40
1,CC1=CC(=Cc2sc3ccccc3[n+]2C)C=C(C)O1,> 19.5 µM (inactive)

# Same assay, conditions: cells pretreated with 5-aza-dC
row,Compound,AC40
1,O=c1oc2cc(O)ccc2cc1-c1nc2c(s1)CCc1ccccc1-2,4.39 µM
2,CCCN1C(=O)S/C(=C\c2ccc(N3CCOCC3)o2)C1=O,> 19.5 µM (inactive)
3,CCCCN(C)C1=CC2=CC(=C(C#N)C#N)CCC2CC1 (configuration not stated),3.44 µM
4,O=[N+]([O-])c1ccc(N2N=C(c3ccccc3)CC2c2ccccc2O)cc1 (configuration not stated),14.1 µM
5,CN(C)S(=O)(=O)c1ccc2c(c1)/C(=C/c1cc3c([nH]1)CCCC3)C(=O)N2,3.17 µM
6,NC(=O)c1c(NC(=O)c2ccccc2)sc2c1CCN(Cc1ccccc1)C2,> 19.5 µM (inactive)
7,CCN(CC)c1ccc2cc(-c3nc(-c4ccc(OC)cc4)cs3)c(=O)oc2c1,0.0781 µM
8,Cc1ccc(C(=O)N/C(=C/c2ccc(-c3ccc([N+](=O)[O-])cc3)o2)C(=O)NCCCN(C)C)cc1,5.7 µM
9,COc1ccc(C(=O)c2sc3nc(C)cc(-c4cccs4)c3c2N)cc1,14.5 µM
10,Cc1n[nH]c(=S)n1/N=C/c1ccc(-c2ccc(Cl)cc2)o1,> 19.5 µM (inactive)
11,COc1ccc(CCNC(=O)c2ccc([N+](=O)[O-])cc2)cc1,18.8 µM
12,CC[n+]1c(/C=C/C=C/N(C(C)=O)c2ccccc2)sc2cc(OC)ccc21,2.73 µM
13,COc1ccc(N2CCN(C(=O)c3cc4c(s3)-c3ccccc3OC4)CC2)cc1,> 19.5 µM (inactive)
14,CCN1CCc2c(sc(NC(=O)c3ccc(S(=O)(=O)N(CC)c4ccccc4)cc3)c2C(N)=O)C1,6.59 µM
